One compound from ChEMBL document CHEMBL1151169, “New beta-caryophyllene-derived terpenoids from the soft coral Sinularia nanolobata” (2004) can be followed below.

In brackets after ≈: the same amount, converted by molar mass.

Holding throughout (assay type): functional
In one experiment the test system is DLD-1. In words: Cytotoxicity against human DLD1 cells by MTT assay. Particulars: read-out: ED50 (the source's name).
Experiment [1] can be described thus: Cytotoxicity against human Medulloblastoma cells by MTT assay. Particulars: Medulloblastoma cell, read-out: ED50 (the source's name).
In the next experiment the test system is NCI-H661. In words: Cytotoxicity against human NCI-H661 cells by MTT assay. Particulars: read-out: ED50 (the source's name).
A further experiment deals with HeLa. Kind of experiment: Cytotoxicity against human HeLa cells by MTT assay. Particulars: read-out: ED50 (the source's name).
The nature of experiment [2]: Cytotoxicity against human HEPA 59T/VGH cells by MTT assay. The following applies: read-out: ED50 (the source's name).
The next experiment concerns KB. Kind of experiment: Cytotoxicity against human KB cells by MTT assay. The following applies: read-out: ED50 (the source's name).

As to `COc1cccc2c1C(=O)c1c(O)c3c(c(O)c1C2=O)C[C@@](O)(C(=O)CO)C[C@@H]3O[C@H]1C[C@H](N)[C@H](O)[C@H](C)O1` [DOXORUBICIN], the EC50 is 0.57 µg/mL (≈ 1.05 µM) in the experiment with DLD-1; 0.41 µg/mL (≈ 0.754 µM) in experiment [1]; 0.29 µg/mL (≈ 0.534 µM) in the experiment on NCI-H661; 0.22 µg/mL (≈ 0.405 µM) with HeLa; 0.47 µg/mL (≈ 0.865 µM) in experiment [2]; 0.25 µg/mL (≈ 0.46 µM) with KB.
